From ChEMBL document CHEMBL3097994, “Simplified captopril analogues as NDM-1 inhibitors” (Bioorg Med Chem Lett, 2014)
The source made the active and inactive calls. The calls are words filed in the database; no cut-off is given here.

Experiment: Inhibition of NDM-1 (unknown origin) using imipenem as substrate by spectrophotometric analysis

SMILES | IC50 [µM]
CC(CS)C(=O)Nc1ncc(Br)s1 (stereo not drawn) | 52
CC(CS)C(=O)NCCc1cccs1 (stereo not drawn) | > 200
C[C@@H](CS)C(=O)NCc1ccccc1 | 1.5
CC(CS)C(=O)Nc1cccc(F)c1 (stereo not drawn) | > 200
COc1ccc(CONC(=O)C(C)CS)cc1 (stereo not drawn) | > 200
C[C@H](CS)C(=O)NCc1ccc(O)cc1 | > 200
CC(CS)C(=O)NCc1ccc(F)cc1 (stereo not drawn) | > 200
CC(CS)C(=O)NCc1ccco1 (stereo not drawn) | > 200
C[C@H](CS)C(=O)NCc1ccccc1O | 5
CC(CS)C(=O)Nc1nccs1 (stereo not drawn) | > 200
CC(CS)C(=O)NCCc1ccccc1 (stereo not drawn) | > 200
CC(CS)C(=O)Nc1ccc(F)cc1 (stereo not drawn) | > 200
Cc1coc(NC(=O)C(C)CS)n1 (stereo not drawn) | 21
Cc1ccccc1CNC(=O)[C@H](C)CS | > 200
C[C@H](CS)C(=O)NCc1ccccc1 | 5
CC(CS)C(=O)Nc1ccccc1 (stereo not drawn) | 135

Now from value to molecule:

IC50 [µM] | SMILES
55 | CONC(=O)[C@H](C)CS
92 | CONC(=O)[C@@H](C)CS
20 | CCCCNC(=O)C(C)CS (stereo not drawn)
> 200 | CC(CS)C(=O)Nc1ncc[nH]1 (stereo not drawn)
15 | CC(CO)CS (stereo not drawn)
13 | CSCCNC(=O)[C@H](C)CS
48 | CON(C)C(=O)[C@@H](C)CS
56 | CC(CS)C(=O)O (racemic)
81 | C[C@H](CS)C(=O)O
10.4 | OCC(S)CS (stereo not drawn) [DIMERCAPROL]
20 | CON(C)C(=O)[C@H](C)CS
53 | C[C@@H](CS)C(=O)O
120 | C[C@H](CS)C(=O)NCCS(C)(=O)=O

Experiment: Inhibition of NDM-1 (unknown origin)

IC50 [µM] | SMILES
39 | C[C@H](CS)C(=O)N1CCC[C@H]1C(=O)O [CAPTOPRIL]

Experiment: Inhibition of NDM-1 (unknown origin) using imipenem as substrate at 1 mM by spectrophotometric analysis

inhibition | SMILES
inactive | COC(=O)C(C)CS (stereo not drawn)
inactive | CC(CS)C(=O)N1CCOCC1 (stereo not drawn)
inactive | CNc1ccccc1NC(=O)C(C)CS (stereo not drawn)
